Data taken from patent publication US20220073536A1 (Rigel Pharmaceuticals, Inc., priority 2003, published 2022).
One block for each compound: values may come before it.

Columns and labels:
[1] = tested on: cultured human mast cells (CHMC); test: CHMC low cell density IgE activation: tryptase assay; format: cell-based; details: IgE activation
In short: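 CHMC at 1000–1500 cells/well were preincubated 1 hr at 37° C., stimulated with anti-IgE for 30 minutes at 37° C., then pelleted. Supernatant tryptase was measured with a fluorogenic substrate after 30 min at room temperature, against un-stimulated control wells.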

[2] = tested on: cultured human mast cells (CHMC); test: CHMC low cell density ionomycin activation: tryptase assay; format: cell-based; details: read-out: LD Tryptase, CHMC, Iono, 3 pt
[3] = Homo sapiens, Mast cell, low cell density CHMC, tryptase readout, 3 pt, read-out: LD Tryptase, CHMC, IgE, 3 pt
[4] = Homo sapiens, Mast cell, low cell density CHMC, tryptase readout, 8 pt, read-out: LD Tryptase, CHMC, IgE, 8 pt
[5] = Homo sapiens, Mast cell, low cell density CHMC, tryptase readout, 3 pt
[6] = Homo sapiens, Mast cell, low cell density CHMC, tryptase, 3 pt, read-out: LD Tryptase, CHMC, IgE, 3 pt
[7] = Homo sapiens, Mast cell, low cell density CHMC, tryptase, 8 pt, read-out: LD Tryptase, CHMC, IgE, 8 pt
[8] = Homo sapiens, Mast cell, low cell density CHMC, tryptase, 3 pt
[9] = Homo sapiens, Mast cell, low cell density CHMC, tryptase release, 3 point, read-out: LD Tryptase, CHMC, IgE, 3 pt
[10] = Homo sapiens, Mast cell, low cell density CHMC, tryptase release, 3 point
[11] = low cell density CHMC, tryptase release, 3 point, read-out: LD Tryptase, CHMC, IgE, 3 pt
[12] = low cell density CHMC, tryptase release, 3 point
[13] = low cell density CHMC, tryptase release, 8 point, read-out: LD Tryptase, CHMC, IgE, 8 pt
[14] = Homo sapiens, Mast cell, low cell density CHMC, tryptase release, 3 pt, read-out: LD Tryptase, CHMC, IgE, 3 pt
[15] = Homo sapiens, Mast cell, low cell density CHMC, tryptase release, 8 pt, read-out: LD Tryptase, CHMC, IgE, 8 pt
[16] = Homo sapiens, Mast cell, low cell density CHMC, tryptase release, 3 pt
[17] = low cell density, 3 pt, read-out: LD Tryptase, CHMC, IgE, 3 pt

IC50 ([1]; low cell density CHMC, tryptase readout, 3 pt, read-out: LD Tryptase, CHMC, IgE, 3 pt): < 10 µM
IC50 ([1]; low cell density CHMC, tryptase readout, 8 pt, read-out: LD Tryptase, CHMC, IgE, 8 pt): < 10 µM
IC50 ([2]; low cell density CHMC, tryptase readout, 3 pt): > 10 µM
SMILES: CNC(=O)COc1cccc(Nc2ncc(F)c(Nc3ccc4c(n3)N(C)C(=O)C(C)(C)O4)n2)c1 [Compound 1015, 5-Fluoro-N2-[3-(N-methylamino)carbonylmethyleneoxyphenyl]-N4-[3-oxo-2,2,4-trimethyl-5-pyrid[1,4]oxazin-6-yl]-2,4-pyrimidinediamine]

IC50 ([1]; low cell density CHMC, tryptase release, 3 pt, read-out: LD Tryptase, CHMC, IgE, 3 pt): < 10 µM
IC50 ([1]; low cell density CHMC, tryptase release, 8 pt, read-out: LD Tryptase, CHMC, IgE, 8 pt): < 10 µM
IC50 ([2]; low cell density CHMC, tryptase release, 3 pt): > 10 µM
SMILES: Cc1cc(C)cc(Nc2ncc(F)c(Nc3ccc4c(c3)NCC(CCO)O4)n2)c1 (centres unmarked) [Compound 255, N4-[2,3-Dihydro-2-(2-hydroxyethyl)-2H,4H-benz[1,4]oxazin-6-yl]-N2-(3,5-dimethylphenyl)-5-fluoro-2,4-pyrimidinediamine]

IC50 [1, 3]: < 10 µM
IC50 [1, 4]: < 10 µM
IC50 [2, 5]: > 10 µM
SMILES: CN(c1ccc2c(c1)NC(=O)C(C)(C)O2)c1nc(Nc2cccc(-c3ncco3)c2)ncc1F [Compound 1019, N4-(2,2-Dimethyl-3-oxo-4H-benz[1,4]oxazin-6-yl)-5-fluoro-N4-methyl-N2-[3-(oxazol-2-yl)phenyl]-2,4-pyrimidinediamine]

IC50 [1, 6]: < 10 µM
IC50 [1, 7]: < 10 µM
IC50 [2, 8]: > 10 µM
SMILES: CC1(C)Oc2ccc(Nc3nc(Nc4cccc(-c5ncco5)c4)ncc3F)cc2NC1=O [Compound 1281]

IC50 [1, 9]: < 10 µM
IC50 [2, 10]: > 10 µM
SMILES: COc1ccc(N(C)c2nc(Nc3cc(C)cc(C)c3)ncc2F)cc1Cl [Compound 584]

IC50 [1, 6]: > 10 µM
IC50 [2, 8]: > 10 µM
SMILES: COC(=O)CN(c1ccc2c(c1)OCCO2)c1nc(Cl)ncc1F [Compound 418]

IC50 [1, 11]: < 10 µM
IC50 [2, 12]: > 10 µM
SMILES: CNC(=O)COc1c(C)cc(Nc2ncc(F)c(Nc3ccc4c(c3)OC(F)(F)C(F)(F)O4)n2)cc1C [Compound 637, N2-[3,5-Dimethyl-4-(N-methylamino)carbonylmethyleneoxyphenyl]-5-fluoro-N4-[3,4-(tetrafluoroethylenedioxy)phenyl]-2,4-pyrimidinediamine]

IC50 [1, 6]: < 10 µM
IC50 [2, 8]: > 10 µM
SMILES: Fc1cnc(Nc2ccc(N3CCOCC3)cc2)nc1N[C@H]1CCN(Cc2ccccc2)C1 [Compound 1180, (S)-N4-(1 -Benzylpyrrolidin-3-yl)-5-fluoro-N2-(4-morpholinophenyl)-2,4-pyrimidinediamine]

IC50 [1, 11]: < 10 µM
IC50 [1, 13]: < 10 µM
IC50 [2, 12]: < 10 µM
SMILES: Cc1cc(C)cc(Nc2ncc(F)c(Nc3ccc(OCCO)c(Cl)c3)n2)c1 [Compound 619, N4-[3-Chloro-4-(2-hydroxyethyleneoxy)phenyl]-N2-(3,5-dimethylphenyl)-5-fluoro-2,4-pyrimidinediamine]

IC50 [1, 6]: < 10 µM
IC50 [2, 8]: > 10 µM
SMILES: Fc1cnc(Nc2cccc(N3CCOCC3)c2)nc1N[C@H]1CCN(Cc2ccccc2)C1 [Compound 1184]

IC50 [1, 6]: > 10 µM
IC50 [2, 8]: > 10 µM
SMILES: COc1cc(OC)cc(N(C)c2nc(Nc3ccc(OC)c(Cl)c3)ncc2F)c1 [Compound 404, N2-(3-Chloro-4-methoxyphenyl)-N4-(3,5-dimethoxyphenyl)-5-fluoro-N4-methyl-2,4-pyrimidinediamine]

IC50 [1, 6]: < 10 µM
IC50 [2, 8]: > 10 µM
SMILES: Fc1cnc(Nc2cccc(N3CCOCC3)c2)nc1NC1CCCC1 [Compound 1158, N4-Cyclopentyl-5-fluoro-N2-(3-morpholinophenyl)-2,4-pyrimidinediamine]

IC50 [1, 11]: < 10 µM
IC50 [1, 13]: < 10 µM
IC50 [2, 12]: > 10 µM
SMILES: CNC(=O)COc1ccc(Nc2nc(Nc3cc(C)cc(C)c3)ncc2F)cc1Cl [Compound 600, N4-[3-Chloro-4-(N-methylamino)carbonylmethyleneoxyphenyl]-N2-(3,5-dimethylphenyl)-5-fluoro-2,4-pyrimidinediamine]

IC50 [1, 9]: > 10 µM
IC50 [2, 10]: > 10 µM
SMILES: COC(=O)c1cc2cc(Nc3ncc(F)c(N(C)c4cc(C)c(Cl)c(C)c4)n3)ccc2o1 [Compound 595]

IC50 [1, 3]: < 10 µM
IC50 [1, 4]: < 10 µM
IC50 [2, 5]: > 10 µM
SMILES: CC1(C)Oc2ccc(Nc3nc(Nc4ccc(-c5ncco5)cc4)ncc3F)cc2NC1=O [Compound 1011, N4-(2,2-Dimethyl-3-oxo-4H-benz[1,4]oxazin-6-yl)-5-fluoro-N2-[4-(oxazol-2-yl)phenyl]-2,4-pyrimidinediamine]

IC50 [1, 9]: > 10 µM
IC50 [2, 10]: > 10 µM
SMILES: CC(C)Oc1ccc(N(C)c2nc(Cl)ncc2F)cn1 [Compound 576]

IC50 [1, 6]: < 10 µM
IC50 [2, 8]: < 10 µM
SMILES: CCOC(=O)N1CCN(c2ccc(Nc3ncc(F)c(Nc4cc(C5CC5)n[nH]4)n3)cc2)CC1 [Compound 1116, N4-(3-Cyclopropyl-1H-pyrazol-5-yl)-N2-[4-(4-ethoxycarbonylpiperazino)phenyl]-5-fluoro-2,4-pyrimidinediamine]

IC50 [1, 14]: < 10 µM
IC50 [1, 15]: < 10 µM
IC50 [2, 16]: > 10 µM
SMILES: O=C1COc2cc(Nc3nc(Nc4cccc(-c5cnco5)c4)ncc3F)ccc2N1 [Compound 234]

IC50 [1, 6]: < 10 µM
IC50 [2, 8]: > 10 µM
SMILES: CCOC(=O)N1CCN(c2cccc(Nc3ncc(F)c(N(C)C4CCC4)n3)c2)CC1 [Compound 1152, N4-Cyclobutyl-N2-[3-(4-ethoxycarbonylpiperazino)phenyl]-5-fluoro-N4-methyl-2,4-pyrimidinediamine]

IC50 [1, 14]: > 10 µM
IC50 [1, 15]: > 10 µM
IC50 [2, 16]: > 10 µM
SMILES: CN1C(=O)COc2ccc(Nc3nc(Nc4ccc(-c5cnco5)cc4)ncc3F)cc21 [Compound 231]

IC50 [1, 17]: < 10 µM
IC50 ([1]; low cell density, 8 pt, read-out: LD Tryptase, CHMC, IgE, 8 pt): < 10 µM
IC50 ([2]; low cell density, 3 pt): > 10 µM
SMILES: COc1cc(Nc2ncc(F)c(Nc3ccc(OCCO)nc3)n2)cc(OC)c1 [Compound 503, N2-(3,5-Dimethoxyphenyl)-5-fluoro-N4-[2-(2-hydroxyethyleneoxy)pyrid-5-yl]-2,4-pyrimidinediamine]

IC50 [1, 6]: < 10 µM
IC50 [2, 8]: > 10 µM
SMILES: COC(=O)CN(c1ccc2c(c1)OCCO2)c1nc(Nc2ccc3cc[nH]c3c2)ncc1F [Compound 420, N4-(3,4-Ethylenedioxyphenyl)-5-fluoro-N2-(indol-6-yl)-N4-(methoxycarbonylmethyl)-2,4-pyrimidinediamine]

IC50 [1, 6]: < 10 µM
IC50 [1, 7]: < 10 µM
IC50 [2, 8]: > 10 µM
SMILES: NC1CCOc2ccc(Nc3nc(Nc4cccc(-c5ncco5)c4)ncc3F)cc21 (centres unmarked) [Compound 1285]

IC50 [1, 17]: < 10 µM
IC50 ([2]; low cell density, 3 pt): > 10 µM
SMILES: Cc1ccccc1Nc1ncc(F)c(Nc2ccc3c(n2)NC(=O)C(C)(C)O3)n1 [Compound 1004, N4-(2,2-Dimethyl-3-oxo-4H-5-pyrid[1,4]oxazin-6-yl)-5-fluoro-N2-(2-methylphenyl)-2,4-pyrimidinediamine]

IC50 [1, 6]: > 10 µM
IC50 [2, 8]: > 10 µM
SMILES: Fc1cnc(Nc2cccc(-c3ncco3)c2)nc1Nc1cccc(-c2ncco2)c1 [Compound 1178, N2,N4-Bis[3-(oxazol-2-yl)phenyl]-5-fluoro-2,4-pyrimidinediamine]

IC50 [1, 15]: < 10 µM
IC50 [2, 16]: < 10 µM
SMILES: Cc1nc2ccc(Nc3ncc(F)c(Nc4ccc5c(n4)NC(=O)C(C)(C)O5)n3)cc2[nH]1 [Compound 845, N4-(2,2-Dimethyl-3-oxo-4H-5-pyrid[1,4]oxazin-6-yl)-5-fluoro-N2-(2-methyl-3H-benzimidazol-5-yl)-2,4-pyrimidinediamine]

IC50 ([1]; Homo sapiens, Mast cell, low cell density, 3 pt, read-out: LD Tryptase, CHMC, IgE, 3 pt): < 10 µM
IC50 ([2]; Homo sapiens, Mast cell, low cell density, 3 pt): > 10 µM
SMILES: CNC(=O)c1ccc(Nc2ncc(F)c(N(C)c3ccc(OC)c(OC)c3)n2)cc1Cl [Compound 474, N2-[3-Chloro-4-(N-methylamino)carbonylphenyl]-N4-(3,4-dimethoxyphenyl)-5-fluoro-N4-methyl-2,4-pyrimidinediamine]

SMILES: CC(C)(C)OC(=O)NCC(=O)NCc1ccc(Nc2ncc(F)c(Nc3ccc4c(c3)NC(=O)C(C)(C)O4)n2)cc1 [Compound 1307, N2-[4-[1-(tert-Butoxycarbonylamino)methylenecarbonylamino]methylphenyl]-N4-(2,2-dimethyl-3-oxo-4H-benz[1,4]oxazin-6-yl)-5-fluoro-2,4-pyrimidinediamine]
IC50 ([1]; low cell density CHMC, tryptase, 3 pt, read-out: LD Tryptase, CHMC, IgE, 3 pt): < 10 µM
IC50 ([1]; low cell density CHMC, tryptase, 8 pt, read-out: LD Tryptase, CHMC, IgE, 8 pt): < 10 µM
IC50 ([2]; low cell density CHMC, tryptase, 3 pt): < 10 µM
